Tests used:
[1] = tested on: hyperpolarisation activated, cAMP-modulated cation current channels (HCN); conditions: cardiac conductive tissues; cited from earlier work
[2] = pharmacokinetic studies of oral cilobradine in dogs; format: in vivo
Protocol: (§1) For example, the following dosages relevant for practicing the present invention with the bradycardic agent cilobradine in cats and dogs, have been determined in appropriate pharmacokinetic studies performed by the inventors. The single oral dose of cilobradine for potent heart rate reduction in cats is 0.2-0.4 mg/kg. The single oral dose of cilobradine for potent heart rate reduction in dogs is 0.3 mg/kg. […] Peak plasma levels are reached 0.5 hours after oral administration in cats and after 1 to 2 hours in dogs.

[3] = tested on: cats suffering from asymptomatic HCM; test: clinical field study, echocardiography in cats suffering from asymptomatic HCM; format: in vivo; conditions: during treatment, days 3 and 6; orally once daily for 5 days; four cats; at baseline not possible in 2 of 4 cats
Protocol: The use according to the invention of an If channel blocker, namely cilobradine, was investigated in a clinical field study with cats suffering from asymptomatic HCM.
Four cats diagnosed as suffering from asymptomatic HCM by means of motion mode […] (left ventricular wall thickness>6 mm), received cilobradine orally once daily for 5 consecutive days. Detailed clinical examinations were conducted at baseline and on days 1, 2, 3, 6 and 9. ECG measurements were performed at baseline and on days 3 and 6 of the study.
The composition used in the experiment was as follows. • Oral solution containing 2 mg/ml cilobradine • Active ingredient added to 0.9% NaCl solution
The results of the experiment, measuring the left ventricular E to A ratios obtained at baseline and under cilobradine treatment, are shown in enclosed FIG. 1.

[4] = pharmacokinetic studies of oral cilobradine in cats; format: in vivo
Protocol: as §1

SMILES | Block of HCN channels (If current) [1] | Absolute bioavailability of oral formulations [2] | Single oral dose for potent heart rate reduction [2] [mg/kg] | Calculation of left ventricular E/A ratios [3] | Time at which peak plasma levels are reached ([4]; after oral administration) [h] | Absolute bioavailability of oral formulations ([4]; oral) [%] | Single oral dose for potent heart rate reduction ([4]; oral) [mg/kg]
COc1ccc(CCN(C)CCCN2CCc3cc(OC)c(OC)cc3CC2=O)cc1OC [zatebradine] | selectively block |  |  |  |  |  | 
COc1ccc(CCN2CCCC(CN3CCc4cc(OC)c(OC)cc4CC3=O)C2)cc1OC (centres unmarked) [cilobradine] | selectively block | 26-43% | 0.3 | possible in all cats | 0.5 | 22.6 | 0.2 to 0.4

Reference: patent US20070054838A1, “METHOD FOR IMPROVING DIAGNOSTIC QUALITY IN ECHOCARDIOGRAPHY” (priority 2005, published 2007)
